# Source: PMC6237146, “Electron transfer ferredoxins with unusual cluster binding motifs support secondary metabolism in many bacteria” (Chemical Science, 2018)
# Legend:
# Type in all cases: binding
# CYP269A1 = target: T1, CYP269A1 (Mycobacterium marinum, UniProt B2HPM5); experiment: UV/Vis heme Soret shift titration
# T1 construct: produced in E. coli and purified; high-spin-like ferric heme (Soret 390 nm); gene near ferredoxin gene Mmar_3973 (Fdx4)
# T1 sequence (B2HPM5 1-403): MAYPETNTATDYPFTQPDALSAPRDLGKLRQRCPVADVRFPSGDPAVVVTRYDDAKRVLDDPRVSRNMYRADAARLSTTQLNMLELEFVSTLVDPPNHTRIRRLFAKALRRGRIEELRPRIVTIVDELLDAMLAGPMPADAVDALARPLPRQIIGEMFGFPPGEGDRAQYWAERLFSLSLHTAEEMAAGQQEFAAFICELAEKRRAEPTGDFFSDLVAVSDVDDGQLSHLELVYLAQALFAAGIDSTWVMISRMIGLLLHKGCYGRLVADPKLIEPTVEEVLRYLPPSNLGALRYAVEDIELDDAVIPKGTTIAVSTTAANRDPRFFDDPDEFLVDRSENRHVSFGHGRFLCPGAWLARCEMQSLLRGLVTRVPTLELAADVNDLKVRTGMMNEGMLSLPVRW
# CYP147G1 [1] = target: T2, CYP147G1 (Mycobacterium marinum, UniProt B2HE89); experiment: UV/Vis heme spin-state shift; settings: purified ferric enzyme; also oxidised to indigo in E. coli with FdR1/Fdx3
# T2 construct: produced in E. coli, purified by two ion exchange steps; ferric heme
# T2 sequence (B2HE89 1-422): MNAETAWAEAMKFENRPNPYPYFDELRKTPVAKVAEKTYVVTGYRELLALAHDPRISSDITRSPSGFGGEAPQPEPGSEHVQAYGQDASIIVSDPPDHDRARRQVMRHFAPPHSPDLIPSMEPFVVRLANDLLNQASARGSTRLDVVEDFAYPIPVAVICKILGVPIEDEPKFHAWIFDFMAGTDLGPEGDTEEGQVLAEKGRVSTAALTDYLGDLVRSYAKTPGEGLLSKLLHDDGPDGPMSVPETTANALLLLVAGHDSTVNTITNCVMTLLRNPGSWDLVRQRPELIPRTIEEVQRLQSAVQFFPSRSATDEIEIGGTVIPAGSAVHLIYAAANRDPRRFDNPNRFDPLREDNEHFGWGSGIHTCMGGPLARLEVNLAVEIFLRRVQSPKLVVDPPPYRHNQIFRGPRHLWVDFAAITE
# CYP147G1 [2] = target: T2, CYP147G1; experiment: UV/Vis heme spin-state shift titration; settings: read-out: dissociation constant
# CYP278A1 = target: T3, CYP278A1 (Mycobacterium marinum, UniProt B2HE37); experiment: UV/Vis heme spin-state shift titration
# T3 construct: produced in E. coli and purified; ferric heme; gene near ferredoxin gene Mmar_2879 (Fdx2)
# T3 sequence (B2HE37 1-427): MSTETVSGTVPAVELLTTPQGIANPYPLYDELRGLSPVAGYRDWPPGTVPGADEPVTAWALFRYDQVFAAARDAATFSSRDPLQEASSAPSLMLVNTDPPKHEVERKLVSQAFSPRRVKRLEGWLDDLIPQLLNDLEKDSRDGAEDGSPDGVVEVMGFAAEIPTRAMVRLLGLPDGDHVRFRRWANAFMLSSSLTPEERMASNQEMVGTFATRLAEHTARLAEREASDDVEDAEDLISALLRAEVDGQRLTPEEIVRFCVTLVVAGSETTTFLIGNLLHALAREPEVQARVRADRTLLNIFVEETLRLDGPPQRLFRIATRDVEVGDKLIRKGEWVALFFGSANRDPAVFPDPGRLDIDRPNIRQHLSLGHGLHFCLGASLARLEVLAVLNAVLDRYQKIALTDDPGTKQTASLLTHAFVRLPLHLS
# CYP150A5 = target: T4, CYP150A5 (Mycobacterium marinum, UniProt B2HG29); experiment: UV/Vis heme spin-state shift titration
# T4 construct: produced in E. coli and purified; ferric heme; gene near ferredoxin gene Mmar_4736 (Fdx8)
# T4 sequence (B2HG29 1-423): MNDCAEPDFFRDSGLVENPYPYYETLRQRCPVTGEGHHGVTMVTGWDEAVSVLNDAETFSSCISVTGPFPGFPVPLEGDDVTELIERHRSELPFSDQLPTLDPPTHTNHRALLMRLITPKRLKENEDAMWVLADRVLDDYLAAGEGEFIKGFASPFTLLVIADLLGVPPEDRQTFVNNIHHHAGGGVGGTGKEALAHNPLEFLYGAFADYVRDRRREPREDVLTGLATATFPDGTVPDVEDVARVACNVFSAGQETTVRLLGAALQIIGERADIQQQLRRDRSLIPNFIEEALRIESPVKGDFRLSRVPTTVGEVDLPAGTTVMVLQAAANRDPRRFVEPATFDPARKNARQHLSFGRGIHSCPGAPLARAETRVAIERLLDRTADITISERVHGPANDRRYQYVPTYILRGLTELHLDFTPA
smiles,measurement,setting,value
Clc1ccc(COC(Cn2ccnc2)c2ccc(Cl)cc2Cl)c(Cl)c1 (centres unmarked) [miconazole],Kd,CYP269A1,0.05 ± 0.007 µM
c1ccc2[nH]ccc2c1 [indole],% high-spin,CYP147G1 [1],< 5%
CCCCCCCCCCC(=O)O [undecanoic acid],Kd,CYP147G1 [2],25 ± 4 µM
CC(=O)/C=C/C1=C(C)CCCC1(C)C [β-ionone],Kd,CYP278A1,5.1 ± 1.5 µM
same,Kd,CYP150A5,41 ± 3 µM
